This passage reports MIC90 results from patent US20080262056A1, “Oxindole Oxazolidinones as Antibacterial Agents” (Pfizer Inc, priority 2004, published 2008).

SMILES strings stand for the structures. Converted amounts (≈) assume the structure as drawn.

Common to all, as to format: cell-based
Test [1] relates to S. pneumoniae SV1 SP-3. Description: in vitro antibacterial activity (MIC), S. pneumoniae. The conditions noted are these: Streptococcus pneumoniae, SV1SP3. An excerpt: (§1) The in vitro antibacterial activity of the compounds of the present invention may be assessed by following procedures recommended in (1) National Committee for Clinical Laboratory Standards (January 2003), Methods for dilution antimicrobial tests for bacteria that grow aerobically, Approved Standard (6th ed), M7-A6, NCCLS, Wayne, Pa.; (2) National Committee for Clinical Laboratory Standards (March 2001), Methods for antimicrobial susceptibility testing of anaerobic bacteria, Approved Standard (5th ed), M11-A4, NCCLS, Wayne, Pa.; (3) National Committee for Clinical Laboratory Standards (Jan. 2003), MIC testing supplemental tables, M100-S13 (for use with M7-A6), NCCLS, Wayne, Pa.; and (4) Murray P R, Baron E J, Jorgensen J H, et al. Manual of Clinical Microbiology (8th ed) Washington, D.C.: American Society for Microbiology Press, 2003. The MIC value is the lowest concentration of drug which prevented macroscopically visible growth under the conditions of the test.

In test [2] the test system is S. aureus UC-76 SA-1. Description: in vitro antibacterial activity (MIC), S. aureus. The conditions noted are these: Staphylococcus aureus, UC76, S. aureus UC-76 SA-1.
Text: as §1

Test [3] has as its system E. faecalis MGH-2 EF 1-1. As to the kind of experiment: in vitro antibacterial activity (MIC), E. faecalis. The conditions noted are these: Enterococcus faecalis, MGH2EF11.
Text: as §1

In the case of `CCC(=O)NC[C@H]1CN(c2ccc3c(c2)CC(=O)N3C(C)CC)C(=O)O1` (stereo partly drawn) [Example 25, (S)—N-[3-(1-sec-butyl-2-oxo-2,3-dihydro-1H-indol-5-yl)-2-oxo-oxazolidin-5-ylmethyl]-propionamide], the MIC90 in test [1], in test [2] and in test [3] was 8 µg/mL (≈ 22.3 µM) throughout.
Turning to `CC(=O)NC[C@H]1CN(c2ccc3c(c2)CC(=O)N3CCF)C(=O)O1` [Example 9, (S)—N-{3-[1-(2-fluoro-ethyl)-2-oxo-2,3-dihydro-1H-indol-5-yl]-2-oxo-oxazolidin-5-ylmethyl}-acetamide], the results for the MIC90 in test [1], in test [2] and in test [3] were 2 µg/mL (≈ 5.96 µM), 8 µg/mL (≈ 23.9 µM) and 2 µg/mL (≈ 5.96 µM), respectively.
In the case of `CC(=O)NC[C@H]1CN(c2cc(F)c3c(c2)CC(=O)N3C(C)C)C(=O)O1` [Example 15, (S)—N-[3-(7-fluoro-1-isopropyl-2-oxo-2,3-dihydro-1H-indol-5-yl)-2-oxo-oxazolidin-5-ylmethyl]-acetamide], the results for the MIC90 in test [1], in test [2] and in test [3] were 2 µg/mL (≈ 5.72 µM), 4 µg/mL (≈ 11.4 µM) and 2 µg/mL (≈ 5.72 µM), respectively.
